Here are results for two compounds from paper PMC3046873 (ACS medicinal chemistry letters, 2011).

By EC50 is commonly meant the concentration at which the effect is half-maximal.

For data set [1] the following is noted: background statement, no reference given, cited from earlier work.
Data set [2] has as its system Plasmodium falciparum. As to the kind of experiment: Activity against the malaria parasite Plasmodium falciparum. Conditions: fold versus 1.
Data set [3] has as its system Plasmodium falciparum. Particulars: cited from earlier work.

Regarding `O=CN(O)CCCP(=O)(O)O` [Compound 1, Fosmidomycin], the oral availability entry in data set [1] was “poor”. Moreover, in data set [1] (plasma), the half-life in plasma was ~ 1 h.

Turning to `O=CN(O)CCC(c1ccc(Cl)c(Cl)c1)P(=O)(O)O` (stereo not shown) [Compound 8], in the data set on Plasmodium falciparum [2], the “increased activity against Plasmodium falciparum relative to 1” value was > 10 ×. Also, the EC50 with Plasmodium falciparum [3] was 90 nM.
